# Source: US6143769A, “Phenylacetic acid benzylamides” (Karl Thomae GmbH, priority 1983, dated 2000)
# Read-outs that look alike come from different tables or passages of the source.
# Experiments:
# [1] = after administration of racemate
# Protocol: (§1) More specifically, the studies which follow were carried out on healthy male volunteers in whom the levels of glucose and active substance in the course of time were determined:
# (§2) In the interests of more precise clarification, study 5 was carried out (randomised, open, crossover). […] 2 hours after administration a standard breakfast (B) was eaten, 5 hours after administration a standard lunch (L) was eaten and 10 hours after administration a standard dinner (D) was eaten. Blood samples were taken at different times. The glucose concentrations were measured in the plasma as in study 1. […] The plasma concentrations of AG-EE 624 ZW were calculated as the difference between the two concentrations found:
# glucose [2] = assay: Study 3: whole blood glucose, single fasting test subject, crossover; type: in vivo, human
# [3] = for Maximum concentration: 2 mg tablet p.o.
# Protocol: as §1
# (§3) 0.25 hours after oral administration a standard breakfast (B) was eaten, 5.5 hours after administration a standard lunch (L) was eaten and 10 hours after administration a standard evening meal (D) was eaten. Blood samples were taken at different times. The glucose concentrations were determined from whole blood according to study 1. The AG-EE 623 ZW concentrations in the plasma were determined by a stereospecific competitive enzyme immunoassay (ELISA) with a detection limit of 0.5 ng/ml.
# (§4) The AG-EE 623 ZW-specific ELISA used is based on polyclonal rabbit antibodies directed against AG-EE 623 ZW covalently bound to human serum albumin. The cross reaction with AG-EE 624 ZW is less than 1:100. Microtitre immunoplates were coated with these antibodies and, after washing and blocking of the plates, incubated with standard or unknown plasma samples at 4° C. for one hour with shaking. Then AG-EE 623 ZW coupled to horse-radish peroxidase was added and incubated for a further 4 hours under the same conditions. 1,2-phenylenediamine was used as substrate for photometrically quantifying the bound enzyme-coupled molecules.
# blood sugar = assay: Blood sugar-lowering effect of the enantiomers in fasted female rats (oral); type: in vivo
# Protocol: The substances to be investigated were suspended in 1.5% methylcellulose immediately before the start of the test and administered into the oesophagus. […] Glucose was measured in the supernatant by the hexokinase method using an analytical photometer. The statistical evaluation was carried out using the Student's t-test with p=0.05 as the limit of significance. Table 1 which follows contains the statistically significant values as percentage deviations from the control: […]
# rats = assay: Acute toxicity of (S)-enantiomer, single oral dose 1000 mg/kg, rats; type: in vivo; settings: 1000 mg/kg p.o.
# glucose [4] = assay: Study 4: whole blood glucose, AG-EE 623 ZW spray-dried tablets; type: in vivo, human
# From the text: Blood samples were taken at different times.
# [5] = Study 3: plasma concentration of active substance, single test subject; type: in vivo, human
# clinical [6] = settings: human, plasma, po
# Protocol: as §1, §3, §4
# clinical [7] = settings: human, plasma, 1 mg
# Protocol: as §1, §2
compound,measurement,setting,value
"CCOc1cc(CC(=O)N[C@@H](CC(C)C)c2ccccc2N2CCCCC2)ccc1C(=O)O [AG-EE 623 ZW, (S)(+)-2-ethoxy-4-[N-[1-(2-piperidino-phenyl)-3-methyl-1-butyl]aminocarbonylmethyl]-benzoic acid]",Elimination (comparison),[1],"eliminated more rapidly than the ineffective enantiomer, AG-EE 624 ZW"
same,Maximum lowering of blood glucose,glucose [2]; 2 mg,-43%
same,Onset of effect,glucose [2]; 2 mg,0.5 h
same,Time of maximum blood sugar reduction,glucose [2]; 2 mg,1.5 h
same,"Glucose, deviation against t = 0","glucose [2]; 2 mg capsule, 0 h",0%
same,"Glucose, deviation against t = 0","glucose [2]; 2 mg, 0.50 h",-10%
same,"Glucose, deviation against t = 0","glucose [2]; 2 mg, 0.75 h",-14%
same,"Glucose, deviation against t = 0","glucose [2]; 2 mg, 1.00 h",-18%
same,"Glucose, deviation against t = 0","glucose [2]; 2 mg, 1.25 h",-29%
same,"Glucose, deviation against t = 0","glucose [2]; 2 mg, 1.50 h",-43%
same,"Glucose, deviation against t = 0","glucose [2]; 2 mg, 1.75 h",-40%
same,"Glucose, deviation against t = 0","glucose [2]; 2 mg, 2.00 h",-33%
same,"Glucose, deviation against t = 0","glucose [2]; 2 mg, 2.50 h",-33%
same,"Glucose, deviation against t = 0","glucose [2]; 2 mg, 3.00 h",-31%
same,"Glucose, deviation against t = 0","glucose [2]; 2 mg, 4.00 h",-20%
same,"Glucose, deviation against t = 0","glucose [2]; 2 mg, 5.00 h",-22%
same,"Glucose, deviation against t = 0","glucose [2]; 2 mg, 6.00 h",-28%
same,"Glucose, deviation against t = 0","glucose [2]; 2 mg, 7.00 h",-22%
same,"Glucose, deviation against t = 0","glucose [2]; 2 mg, 8.00 h",-26%
same,Concentration (mean),"[3]; 0.5 mg tablet, 0 h",0.0 ng/mL
same,Concentration (mean),"[3]; 0.5 mg, 4.00 h",0.0 ng/mL
same,Concentration (mean),"[3]; 0.5 mg, 5.00 h",0.0 ng/mL
same,Concentration (mean),"[3]; 0.5 mg, 6.00 h",0.0 ng/mL
same,Concentration (mean),"[3]; 0.5 mg, 8.00 h",0.0 ng/mL
same,Concentration (mean),"[3]; 0.5 mg, 10.00 h",0.0 ng/mL
same,Concentration (mean),"[3]; 0.5 mg, 24.00 h",0.0 ng/mL
same,Time at which plasma level is below detection limit,[3]; 1 mg tablet,3.0 h
same,Concentration (mean),"[3]; 1 mg tablet, 0 h",0.0 ng/mL
same,Concentration (mean),"[3]; 1 mg, 8.00 h",0.0 ng/mL
same,Concentration (mean),"[3]; 1 mg, 10.00 h",0.0 ng/mL
same,Concentration (mean),"[3]; 1 mg, 24.00 h",0.0 ng/mL
same,Time at which plasma level is below detection limit,[3]; 2 mg tablet,4.0 h
same,Maximum concentration,[3],50.4 ± 26.3 ng/mL
same,Maximum concentration,[3]; listed as 623,50 ± 26 ng/mL
same,Concentration (mean),"[3]; 2 mg tablet, 0 h",0.0 ng/mL
same,Concentration (mean),"[3]; 2 mg, 8.00 h",0.0 ng/mL
same,Concentration (mean),"[3]; 2 mg, 10.00 h",0.0 ng/mL
same,Concentration (mean),"[3]; 2 mg, 24.00 h",0.0 ng/mL
same,Fall of plasma levels (comparison),"[3]; versus AG-EE 388 ZW, identical dose",fall more rapidly towards zero than the AG-EE 388 ZW levels
same,"Glucose, percentage deviation from control","blood sugar; 0.015 mg/kg p.o., 1 h",-17 percentage deviation
same,"Glucose, percentage deviation from control","blood sugar; 0.015 mg/kg p.o., 2 h",-36 percentage deviation
same,"Glucose, percentage deviation from control","blood sugar; 0.015 mg/kg p.o., 3 h",-37 percentage deviation
same,"Glucose, percentage deviation from control","blood sugar; 0.015 mg/kg p.o., 4 h",-32 percentage deviation
same,"Glucose, percentage deviation from control","blood sugar; 0.015 mg/kg p.o., 5 h",-35 percentage deviation
same,"Glucose, percentage deviation from control","blood sugar; 0.015 mg/kg p.o., 6 h",-35 percentage deviation
same,Blood sugar-lowering effect (in words),blood sugar; rat,effective enantiomer
same,Duration of effect,"blood sugar; rat, 0.015 mg/kg p.o.",> 6 h
same,Toxicity,rats,virtually non-toxic
same,Deaths,"rats; 5 male and 5 female rats, 14 days",no animals died
same,Glucose (mean),"glucose [4]; 0.5 mg tablet, 0 h",5.21 mmol/L
same,Glucose (mean),"glucose [4]; 0.5 mg, 0.25 h (breakfast)",5.09 mmol/L
same,Glucose (mean),"glucose [4]; 0.5 mg, 0.50 h",5.01 mmol/L
same,Glucose (mean),"glucose [4]; 0.5 mg, 0.75 h",5.85 mmol/L
same,Glucose (mean),"glucose [4]; 0.5 mg, 1.00 h",5.88 mmol/L
same,Glucose (mean),"glucose [4]; 0.5 mg, 1.50 h",4.05 mmol/L
same,Glucose (mean),"glucose [4]; 0.5 mg, 2.09 h (so in the source)",3.50 mmol/L
same,Glucose (mean),"glucose [4]; 0.5 mg, 3.00 h",3.90 mmol/L
same,Glucose (mean),"glucose [4]; 0.5 mg, 4.00 h",4.08 mmol/L
same,Glucose (mean),"glucose [4]; 0.5 mg, 5.00 h",4.32 mmol/L
same,Glucose (mean),"glucose [4]; 0.5 mg, 6.00 h",6.63 mmol/L
same,Glucose (mean),"glucose [4]; 0.5 mg, 8.00 h",5.61 mmol/L
same,Glucose (mean),"glucose [4]; 0.5 mg, 10.00 h (dinner)",4.81 mmol/L
same,Glucose (mean),"glucose [4]; 0.5 mg, 24.00 h",4.82 mmol/L
same,Time of peak blood sugar lowering,glucose [4]; 1 mg and 2 mg tablet,1.5 h
same,Duration of blood sugar lowering,glucose [4]; 1 mg tablet,up to 2 hours
same,Start of blood sugar lowering,glucose [4]; 1 mg tablet,1.0 h
same,Glucose (mean),"glucose [4]; 1 mg tablet, 0 h",4.62 mmol/L
same,Glucose (mean),"glucose [4]; 1 mg, 0.25 h (breakfast)",4.62 mmol/L
same,Glucose (mean),"glucose [4]; 1 mg, 0.50 h",4.57 mmol/L
same,Glucose (mean),"glucose [4]; 1 mg, 0.75 h",5.36 mmol/L
same,Glucose (mean),"glucose [4]; 1 mg, 1.00 h",4.72 mmol/L
same,Glucose (mean),"glucose [4]; 1 mg, 1.50 h",2.98 mmol/L
same,Glucose (mean),"glucose [4]; 1 mg, 2.09 h (so in the source)",3.20 mmol/L
same,Glucose (mean),"glucose [4]; 1 mg, 3.00 h",3.69 mmol/L
same,Glucose (mean),"glucose [4]; 1 mg, 4.00 h",4.05 mmol/L
same,Glucose (mean),"glucose [4]; 1 mg, 5.00 h",3.94 mmol/L
same,Glucose (mean),"glucose [4]; 1 mg, 6.00 h",6.48 mmol/L
same,Glucose (mean),"glucose [4]; 1 mg, 8.00 h",5.37 mmol/L
same,Glucose (mean),"glucose [4]; 1 mg, 10.00 h (dinner)",4.57 mmol/L
same,Glucose (mean),"glucose [4]; 1 mg, 24.00 h",4.69 mmol/L
same,Duration of blood sugar lowering,glucose [4]; 2 mg tablet,≤ 5 h
same,Start of blood sugar lowering,glucose [4]; 2 mg tablet,0.75 h
same,Glucose (mean),"glucose [4]; 2 mg tablet, 0 h",4.67 mmol/L
same,Glucose (mean),"glucose [4]; 2 mg, 0.25 h (breakfast)",5.14 mmol/L
same,Glucose (mean),"glucose [4]; 2 mg, 0.50 h",4.38 mmol/L
same,Glucose (mean),"glucose [4]; 2 mg, 0.75 h",4.54 mmol/L
same,Glucose (mean),"glucose [4]; 2 mg, 1.00 h",4.27 mmol/L
same,Glucose (mean),"glucose [4]; 2 mg, 1.50 h",2.65 mmol/L
same,Glucose (mean),"glucose [4]; 2 mg, 2.09 h (so in the source)",2.74 mmol/L
same,Glucose (mean),"glucose [4]; 2 mg, 3.00 h",3.07 mmol/L
same,Glucose (mean),"glucose [4]; 2 mg, 4.00 h",3.64 mmol/L
same,Glucose (mean),"glucose [4]; 2 mg, 5.00 h",3.88 mmol/L
same,Glucose (mean),"glucose [4]; 2 mg, 6.00 h",6.47 mmol/L
same,Glucose (mean),"glucose [4]; 2 mg, 8.00 h",4.61 mmol/L
same,Glucose (mean),"glucose [4]; 2 mg, 10.00 h (dinner)",4.45 mmol/L
same,Glucose (mean),"glucose [4]; 2 mg, 24.00 h",4.77 mmol/L
same,Maximum level relative to level after same dose of AG-EE 388 ZW,[5]; 2 mg,about one third
same,Maximum concentration,"[5]; 2 mg capsule, listed as 623",24 ng/mL
same,Active substance concentration,"[5]; 2 mg, 1.25 h",0 ng/mL
same,Active substance concentration,"[5]; 2 mg, 2.50 h",0 ng/mL
same,Active substance concentration,"[5]; 2 mg, 3.00 h",0 ng/mL
same,Active substance concentration,"[5]; 2 mg, 3.50 h",0 ng/mL
same,Active substance concentration,"[5]; 2 mg, 4.00 h",0 ng/mL
same,Active substance concentration,"[5]; 2 mg, 6.00 h",0 ng/mL
same,Active substance concentration,"[5]; 2 mg, 7.00 h",0 ng/mL
same,Cmax,"[5]; human, plasma, po, 2 mg, 2 mg capsule, read-out: Maximum concentration",22 to 24 ng/mL
same,concentration at 1.5 h,"[5]; human, plasma, po, 2 mg, 1.50 h",22 ng/mL
same,concentration at 1.75 h,"[5]; human, plasma, po, 2 mg, 1.75 h",24 ng/mL
same,concentration at 2 h,"[5]; human, plasma, po, 2 mg, 2.00 h",7 ng/mL
same,Tmax,clinical [6],30 min
same,AUC(0-inf),clinical [6]; 0.5 mg,14.3 ± 8.6 ng·h/mL
same,Cmax,clinical [6]; 0.5 mg,15 ± 8 ng/mL
same,MRT,clinical [6]; 0.5 mg,54 ± 12 min
same,Tmax,clinical [6]; 0.5 mg,36 ± 6 min
same,concentration at 0.25 h,clinical [6]; 0.5 mg,8.4 ng/mL
same,concentration at 0.5 h,clinical [6]; 0.5 mg,4.7 ng/mL
same,concentration at 0.75 h,clinical [6]; 0.5 mg,1.6 ng/mL
same,concentration at 1 h,clinical [6]; 0.5 mg,7 ng/mL
same,concentration at 1.5 h,clinical [6]; 0.5 mg,2.6 ng/mL
same,concentration at 2.09 h,clinical [6]; 0.5 mg,1.2 ng/mL
same,concentration at 3 h,clinical [6]; 0.5 mg,0.3 ng/mL
same,half-life,clinical [6]; 0.5 mg,30 ± 12 min
same,concentration at 0.25 h,clinical [6]; 1 mg,14.5 ng/mL
same,concentration at 0.5 h,clinical [6]; 1 mg,27.9 ng/mL
same,concentration at 0.75 h,clinical [6]; 1 mg,24.2 ng/mL
same,concentration at 1 h,clinical [6]; 1 mg,15.3 ng/mL
same,concentration at 1.5 h,clinical [6]; 1 mg,7.8 ng/mL
same,concentration at 2.09 h,clinical [6]; 1 mg,4.7 ng/mL
same,concentration at 3 h,clinical [6]; 1 mg,1.4 ng/mL
same,concentration at 0.25 h,clinical [6]; 2 mg,24.1 ng/mL
same,concentration at 0.5 h,clinical [6]; 2 mg,50.4 ng/mL
same,concentration at 0.75 h,clinical [6]; 2 mg,41.1 ng/mL
same,concentration at 1 h,clinical [6]; 2 mg,29.9 ng/mL
same,concentration at 1.5 h,clinical [6]; 2 mg,13.5 ng/mL
same,concentration at 2.09 h,clinical [6]; 2 mg,8.8 ng/mL
same,concentration at 3 h,clinical [6]; 2 mg,4.3 ng/mL
same,concentration at 4 h,clinical [6]; 2 mg,1.5 ng/mL
same,concentration at 5 h,clinical [6]; 2 mg,0.4 ng/mL
same,concentration at 6 h,clinical [6]; 2 mg,0.2 ng/mL
same,MRT,clinical [7]; iv,54 ± 36 min
same,clearance,clinical [7]; iv,443 ± 140 mL/min
same,bioavailability,clinical [7]; po,76 ± 20%
